Target: T1, GPCR GPR40 (Homo sapiens, UniProt O14842)
T1 construct: expressed in transfected cells; host or cells: HEK293
Assay: In-vitro FLIPR assay with recombinant cells which express the GPCR GPR40
Type: cell-based
Settings: agonist-induced intracellular Ca2+ change in recombinant HEK293 cells expressing GPR40; relative to 10 μM linoleic acid = 100%
Protocol: In-vitro FLIPR Assay with Recombinant Cells which Express the GPCR GPR40
Function-testing assays were carried out by means of the FLIPR technique (“fluorescence imaging plate reader”, Molecular Devices Corp.). For this purpose, agonist-induced alterations in the intracellular concentration of Ca^2+ in recombinant HEK293 cells which express the GPCR GPR40 were determined.
For the investigations, cells were seeded in 96-well microtiter plates (60 000 cells/well) and left to grow overnight. The medium was removed and the cells were incubated in buffer which contained the fluorescent dye Fluo-4. After this loading with dye, the cells were washed, test substance was added and alterations in the intracellular Ca^2+ concentration were measured in the FLIPR instrument. Results have been depicted as percentage alteration relative to the control (0%: no test substance added; 100%: 10 μM reference agonist linoleic acid added) used to calculate dose/activity plots and EC50 values were determined.

T1 sequence (O14842 whole entry): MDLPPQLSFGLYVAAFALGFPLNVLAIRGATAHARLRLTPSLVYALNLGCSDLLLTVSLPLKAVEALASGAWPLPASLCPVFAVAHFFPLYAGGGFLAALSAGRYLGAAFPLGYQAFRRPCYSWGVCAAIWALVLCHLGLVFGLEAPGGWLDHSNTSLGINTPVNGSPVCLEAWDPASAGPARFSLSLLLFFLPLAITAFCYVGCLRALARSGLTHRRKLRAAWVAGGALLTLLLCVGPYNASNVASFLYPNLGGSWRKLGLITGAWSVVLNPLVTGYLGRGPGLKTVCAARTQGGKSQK

Row | EC50 | Structure (SMILES)
1 | 700 nM | O=C(Nc1ccc(C2CC2C(=O)O)cc1)C(=O)Nc1ccc(Cl)cc1C(F)(F)F (centres unmarked) [Example 2]
2 | 800 nM | O=C(Nc1ccc(C2CC2C(=O)O)cc1)C(=O)Nc1cccc(Cl)c1Cl (centres unmarked) [Example 3]

Reference: patent US8148375B2, “(Cyclopropylphenyl)phenyloxamides, method for the production thereof, and use of same as a medicament” (Sanofi-Aventis, priority 2007, dated 2012)
